Data published in patent US20230174486A1, “NON-LYSOSOMAL GLUCOSYLCERAMIDASE INHIBITORS AND USES THEREOF” (ALECTOS THERAPEUTICS lNC., priority 2020, published 2023).

Key:
human GBA2 = target: T1, human GBA2 (Homo sapiens, UniProt Q9HCG7); test: Inhibition of GBA2 in cell lysate (4-methylumbelliferone-β-D glucopyranoside substrate); type: biochemical; settings: homogenate of HEK293T cells stably overexpressing human GBA2, pH 5.5, 37° C., GCase inhibitor present
T1 construct: cellular homogenate
T1 sequence (Q9HCG7 1-927): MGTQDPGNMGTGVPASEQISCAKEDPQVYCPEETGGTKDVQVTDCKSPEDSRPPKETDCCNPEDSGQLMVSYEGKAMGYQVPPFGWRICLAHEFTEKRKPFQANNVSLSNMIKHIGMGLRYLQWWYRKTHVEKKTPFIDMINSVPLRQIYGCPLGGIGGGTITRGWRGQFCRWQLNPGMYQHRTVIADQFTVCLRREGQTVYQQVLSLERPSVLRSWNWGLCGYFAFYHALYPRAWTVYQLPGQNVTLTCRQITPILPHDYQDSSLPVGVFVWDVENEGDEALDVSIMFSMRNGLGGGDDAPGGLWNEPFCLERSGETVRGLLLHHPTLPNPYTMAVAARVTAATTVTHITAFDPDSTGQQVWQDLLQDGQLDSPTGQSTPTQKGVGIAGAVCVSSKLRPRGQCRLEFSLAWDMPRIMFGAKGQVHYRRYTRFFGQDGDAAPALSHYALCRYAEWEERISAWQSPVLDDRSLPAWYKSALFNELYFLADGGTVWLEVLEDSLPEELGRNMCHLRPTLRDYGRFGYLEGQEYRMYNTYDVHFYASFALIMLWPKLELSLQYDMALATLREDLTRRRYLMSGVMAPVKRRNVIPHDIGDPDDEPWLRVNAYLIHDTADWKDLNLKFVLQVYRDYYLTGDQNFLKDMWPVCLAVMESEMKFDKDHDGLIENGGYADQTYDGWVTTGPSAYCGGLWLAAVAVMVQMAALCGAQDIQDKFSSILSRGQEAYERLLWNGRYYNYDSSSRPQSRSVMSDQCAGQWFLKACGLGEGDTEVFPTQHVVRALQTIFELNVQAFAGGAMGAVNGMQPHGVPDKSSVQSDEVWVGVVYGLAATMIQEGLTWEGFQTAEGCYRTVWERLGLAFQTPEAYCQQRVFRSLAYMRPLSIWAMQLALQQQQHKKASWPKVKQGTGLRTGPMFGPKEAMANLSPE
Procedure: Stable GBA2-expressing HEK293T cells were generated as follows. The PCR-amplified human GBA2 (GBA2 nucleotide accession number BC011363) using the following primers: Sense 5’---CGCAAATGGGCGGTAGGCGTG---3’ and antisense 5’---TAGTCAGCCATGGGGCGGAGA ---3’) was cloned into pLenti-GIII-CMV by ABM Inc. The correctness of the construct was verified by sequencing. Lentivirus particles containing GBA2 in the pLenti-GIII-CMV plasmid were prepared using a third Generation Virus Packaging Mix (ABM cat# LV053-G074) in HEK293T cells and supplied as a virus particle suspension. The virus suspension was used for infection of HEK293T cells. Cell populations stably expressing human GBA2 were selected using puromycin for several weeks as determined by activity assays and western blot.
Various concentrations of test compounds were prepared in DMSO and then diluted into buffer consisting of 100 mM citric acid, 200 mM disodium phosphate with 1% v/v C10E6, pH 5.5. Cellular homogenates (0.25 mg/mL) of the stable HEK293T-overexpressing GBA2 cell line were preincubated for 10 min on ice with an inhibitor of GCase (20 µM (6R,7R,8S)-8-ethyl-4-azaspiro[2.5]octane-6,7-diol). The reaction solution consisted of 20 µL of 750 µM 4-methylumbelliferone-β-D glucopyranoside in 5% DMSO in the same buffer, 20 µL of GBA2-cellular homogenate pre-treated with (6R,7R,8S)-8-ethyl-4-azaspiro[2.5]octane-6,7-diol and 20 µL of various concentrations of test compound in 10% DMSO in the same buffer. The final concentrations in the reaction were 0.083 mg/mL GBA2-cellular homogenate, 250 µM 4-methylumbelliferone-β-D glucopyranoside, and various concentrations of inhibitor. The inhibitor and GBA2-cellular homogenate were preincubated together for 5 min at 37° C. The reaction was initiated by addition of substrate and allowed to proceed for 20 min at 37° C. to assess GBA2 activity. Reactions were stopped by the addition of an equal volume (60 µL) of 0.5 M NaOH, 0.3 M glycine, pH 10.5. Fluorescence was measured on a Biotek Synergy H4 plate reader at wavelengths of 365 nm for excitation and 450 nm for emission. Incubations without added enzyme or added inhibitors were used to define no enzyme activity and maximal enzyme activity, respectively. IC50 values were determined by fitting the data to a log[inhibitor concentration] versus response curve using GraphPad Prism. IC50 values were calculated as the concentration of inhibitor required to inhibit GBA2 activity by 50%.

[1] = target: T2, human non-lysosomal glucosylceramidase (GBA2) (Homo sapiens, UniProt Q9HCG7); test: Binding specificity for GBA2 over other molecules (ratio of Ki or IC50 values); type: biochemical; settings: qualitative statement, no values or other enzyme given
T2 sequence (Q9HCG7 1-927): T1 sequence (Q9HCG7 1-927)
Text: In some embodiments, one or more of the compounds according to the invention may specifically bind a GBA2. In alternative embodiments, one or more of the compounds according to the invention may specifically bind the active site of a GBA2. […] In alternative embodiments, one or more of the compounds according to the invention may specifically bind the human non-lysosomal glucosylceramidase (GBA2) over the human lysosomal glucosylceramidase (GCase) and/or the human cytosolic glucosylceramidase (GBA3). In alternative embodiments, one or more of the compounds according to the invention may specifically bind the human non-lysosomal glucosylceramidase (GBA2) over the human glucosylceramide synthase (GCS). In alternative embodiments, one or more of the compounds according to the invention may specifically bind the human non-lysosomal glucosylceramidase (GBA2) over an intestinal alpha-glucosidase, where the intestinal alpha-glucosidase may be a sucrase-isomaltase or a maltase-glucoamylase.

With `OC[C@H]1[C@@H](O)[C@H](O)[C@@H](O)CN1CCc1c(F)cc(C2CCOCC2)cc1F` [Example 21, (2S,3R,4R,5S)-1-(2,6-difluoro-4-(tetrahydro-2H-pyran-4-yl)phenethyl)-2-(hydroxymethyl)piperidine-3,4,5-triol] the “GBA2 IC50” value (human GBA2) was “∗∗∗” and the “binding specificity, Ki(other molecule)/Ki(GBA2) or IC50(other molecule)/IC50(GBA2)” value (shortened to “binding specificity”) [1] was “enhanced binding specificity”.

`CCCCOc1ccc(CCN2C[C@H](O)[C@@H](O)[C@H](O)[C@@H]2CO)cc1` [Example 22, (2S,3R,4R,5S)-1-(4-butoxyphenethyl)-2-(hydroxymethyl)piperidine-3,4,5-triol] was tested, and the “GBA2 IC50” value (human GBA2) was “∗∗∗” and the “binding specificity” value [1] was “enhanced binding specificity”.

With `CCCCOc1cc(F)c(CCN2C[C@H](O)[C@@H](O)[C@H](O)[C@@H]2CO)c(F)c1` [Example 23, (2S,3R,4R,5S)-1-(4-butoxy-2,6-difluorophenethyl)-2-(hydroxymethyl)piperidine-3,4,5-triol] the “GBA2 IC50” value (human GBA2) was “∗∗∗” and the “binding specificity” value [1] was “enhanced binding specificity”.

`OC[C@H]1[C@@H](O)[C@H](O)[C@@H](O)CN1CC1CCN(c2ccc(F)cc2)CC1` [Example 24, (2S,3R,4R,5S)-1-((1-(4-fluorophenyl)piperidin-4-yl)methyl)-2-(hydroxymethyl)piperidine-3,4,5-triol] was tested, and the “GBA2 IC50” value (human GBA2) was “∗∗∗” and the “binding specificity” value [1] was “enhanced binding specificity”.

In the case of `OC[C@H]1[C@@H](O)[C@H](O)[C@@H](O)CN1C[C@H]1CCN(c2ncccc2C(F)(F)F)C1` [Example 25, (2S,3R,4R,5S)-2-(hydroxymethyl)-1—(((R)—1-(3-(trifluoromethyl)pyridin-2-yl)pyrrolidin-3-yl)methyl)piperidine-3,4,5-triol], the “GBA2 IC50” value (human GBA2) is reported as “∗∗∗” and the “binding specificity” value [1] is reported as “enhanced binding specificity”.

For `OC[C@H]1[C@@H](O)[C@H](O)[C@@H](O)CN1C[C@@H]1CCN(c2ncccc2C(F)(F)F)C1` [Example 27, (2S,3R,4R,5S)-2-(hydroxymethyl)-1—(((S)—1-(3-(trifluoromethyl)pyridin-2-yl)pyrrolidin-3-yl)methyl)piperidine-3,4,5-triol], the “GBA2 IC50” value (human GBA2) was “∗∗∗” and the “binding specificity” value [1] was “enhanced binding specificity”.

In the case of `OC[C@H]1[C@@H](O)[C@H](O)[C@@H](O)CN1C[C@@H]1CCN(c2nc(C(F)(F)F)cs2)C1` [Example 28, (2S,3R,4R,5S)-2-(hydroxymethyl)-1—(((S)—1-(4-(trifluoromethyl)thiazol-2-yl)pyrrolidin-3-yl)methyl)piperidine-3,4,5-triol], the “GBA2 IC50” value (human GBA2) is reported as “∗∗∗” and the “binding specificity” value [1] is reported as “enhanced binding specificity”.

In the case of `OC[C@H]1[C@@H](O)[C@H](O)[C@@H](O)CN1C[C@H]1CCCN(c2ncccc2C(F)(F)F)C1` [Example 29, (2S,3R,4R,5S)-2-(hydroxymethyl)-1—(((R)—1-(3-(trifluoromethyl)pyridin-2-yl)piperidin-3-yl)methyl)piperidine-3,4,5-triol], the “GBA2 IC50” value (human GBA2) is reported as “∗∗∗” and the “binding specificity” value [1] is reported as “enhanced binding specificity”.

With `OC[C@H]1[C@@H](O)[C@H](O)[C@@H](O)CN1C[C@@H]1CCCN(c2ncccc2C(F)(F)F)C1` [Example 31, (2S,3R,4R,5S)-2-(hydroxymethyl)-1—(((S)—1-(3-(trifluoromethyl)pyridin-2-yl)piperidin-3-yl)methyl)piperidine-3,4,5-triol] the “GBA2 IC50” value (human GBA2) was “∗∗∗” and the “binding specificity” value [1] was “enhanced binding specificity”.

For `OC[C@H]1[C@@H](O)[C@H](O)[C@@H](O)CN1C[C@@H]1CCCN(c2nc(C(F)(F)F)cs2)C1` [Example 32, (2S,3R,4R,5S)-2-(hydroxymethyl)-1—(((S)—1-(4-(trifluoromethyl)thiazol-2-yl)piperidin-3-yl)methyl)piperidine-3,4,5-triol], the “GBA2 IC50” value (human GBA2) was “∗∗∗” and the “binding specificity” value [1] was “enhanced binding specificity”.

`OC[C@H]1[C@@H](O)[C@H](O)[C@@H](O)CN1C[C@H]1CC[C@@H](C(F)F)CC1` [Example 311, (2S,3R,4R,5S)-1-(((1s,4R)-4-(difluoromethyl)cyclohexyl)methyl)-2-(hydroxymethyl)piperidine-3,4,5-triol] was tested, and the “GBA2 IC50” value (human GBA2) was “∗∗∗” and the “binding specificity” value [1] was “enhanced binding specificity”.

With `OC[C@H]1[C@@H](O)[C@H](O)[C@@H](O)CN1C[C@H]1CC[C@H](C(F)F)CC1` [Example 312, (2S,3R,4R,5S)-1-(((1r,4S)-4-(difluoromethyl)cyclohexyl)methyl)-2-(hydroxymethyl)piperidine-3,4,5-triol] the “GBA2 IC50” value (human GBA2) was “∗∗∗” and the “binding specificity” value [1] was “enhanced binding specificity”.

`CC(F)(F)[C@H]1CC[C@@H](CN2C[C@H](O)[C@@H](O)[C@H](O)[C@@H]2CO)CC1` [Example 313, (2S,3R,4R,5S)-1-(((1s,4R)-4-(1,1-difluoroethyl)cyclohexyl)methyl)-2-(hydroxymethyl)piperidine-3,4,5-triol] was tested, and the “GBA2 IC50” value (human GBA2) was “∗∗∗” and the “binding specificity” value [1] was “enhanced binding specificity”.

`CC(F)(F)[C@H]1CC[C@H](CN2C[C@H](O)[C@@H](O)[C@H](O)[C@@H]2CO)CC1` [Example 314, (2S,3R,4R,5S)-1-(((1r,4S)-4-(1,1-difluoroethyl)cyclohexyl)methyl)-2-(hydroxymethyl)piperidine-3,4,5-triol] was tested, and the “GBA2 IC50” value (human GBA2) was “∗∗∗” and the “binding specificity” value [1] was “enhanced binding specificity”.
